The results in this text go back to patent publication US8354412B2, “Beta-3 receptor ligands and their use in therapy” (Universita' Degli Studi di Bari, priority 2006, dated 2013).

Each structure is given as a SMILES string.

The target of test [1] is T1, cloned human β1-adrenergic receptor (Homo sapiens, UniProt P08588).
T1 construct: expressed in transfected cells; host or cells: CHO (membranes)
The test is described as follows: [3H]-dihydroalprenolol binding on CHO cell membranes, β1-adrenergic receptor. Conditions: human β1; Cheng-Prusoff; 4 nM [3H]-dihydroalprenolol; read-out: Binding Ki, β1. As for the experimental part: (§1) The cell lines of “Chinese hamster ovary” (CHO) that individually express the three subtypes of the human adrenergic receptor (β1, β2 or β3 were grown at 37° C. in an atmosphere composed of 5% of CO2 and 95% of air in a culture medium of Dulbecco's Modified Eagle Medium with a nutrient mixture of F12 (DMEM/F12) supplemented with 10% of bovine fetal Serum, 2 mM of L-glutamine, 100 units/ml of penicillin G and 100 μg/ml of […].
(§2) The preconfluence cells were washed with cold PBS, removed from the surface of the plate, collected in cold lysis buffer (10×10^6/ml; 5 mM Tris/HCl, 2 mM EDTA, pH 7.4 at 4° C.) and homogenized with a Brinkmann Polytron (5 for 3×10 secs). The cell membranes obtained were then […] for 10 mins at 4° C. at 1000 g. The supernatant was centrifuged at 10000 g for 30 min. at 4° C. The resultant membrane pellet was resuspended in cold incubation buffer (50 mM Tris/HCl, 10 mM MgCl2, pH 7.4 for the binding experiments on the β1-adrenergic receptors; 50 mM Tris/HCl, pH 7.4 for the binding experiments of on the β2-adrenergic receptors) and its protein content was then determined. The membrane suspension obtained was used immediately or stored at −80° C. until used in the binding experiments.
(§3) The saturation experiments were conducted by incubating the cell membranes (50 μg of protein) in 500 μl of incubation buffer, containing increasing concentrations of [^3H]-dihydroalprenolol (0.1 nM, 0.5 nM, 1 nM, 3 nM, 5 nM, 10 nM). The β1-adrenergic receptors were incubated at 30° C. for 30 min. while the incubation lasted 90 min. in the case of the β2-adrenergic receptor. […] The filters were then washed (3×1 ml) with cold incubation buffer. The residual radioactivity of the filters was measured using a Beckmann LS6500 Multi-purpose scintillator.
(§4) The competitive experiments were conducted by incubation of 50 μg of protein with increasing quantities of the compound under examination (from 10^−9M to 10^−4M) and 4 nM [^3H]-dihydroalprenolol for the β1-adrenergic receptor or 0.4 nM for the β2-adrenergic receptor, in a total volume of 500 μl of incubation buffer.

In test [2] the target is T1, cloned human β1-adrenergic receptor. The description is as above. The following applies: compound at 10 μM.
The target in test [3] is T2, cloned human beta-3 adrenergic receptor (Homo sapiens, UniProt P13945).
T2 construct: expressed in transfected cells; host or cells: CHO-K1
T2 sequence (P13945 whole entry): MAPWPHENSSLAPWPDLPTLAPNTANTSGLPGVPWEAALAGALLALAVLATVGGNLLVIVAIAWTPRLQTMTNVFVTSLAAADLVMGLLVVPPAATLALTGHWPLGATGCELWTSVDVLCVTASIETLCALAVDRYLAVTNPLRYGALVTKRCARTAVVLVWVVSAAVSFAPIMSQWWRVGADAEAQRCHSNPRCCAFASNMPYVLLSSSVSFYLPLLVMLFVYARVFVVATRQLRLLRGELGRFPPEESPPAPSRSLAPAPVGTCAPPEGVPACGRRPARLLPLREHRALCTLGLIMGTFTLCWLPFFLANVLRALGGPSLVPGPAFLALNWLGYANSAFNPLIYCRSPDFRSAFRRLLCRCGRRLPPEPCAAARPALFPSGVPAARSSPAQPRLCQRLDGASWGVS
The test is described as follows: cAMP accumulation (DELFIA cAMP-Eu assay) in CHO-K1 cells expressing the beta-3 adrenergic receptor. The test is classed as cell-based. The protocol:
The determination of the beta-3 adrenergic activity of the compounds of general formula (I) was performed by measuring the levels of cAMP in cell lines of CHO-K1 that express the cloned human beta-3 adrenergic receptor. The accumulation of cAMP is directly correlated to the beta-3 adrenergic activity of the compound and is a predictive measure of the effectiveness of the ligand. The accumulation of cAMP produced by the compounds 1a-1h was determined using the Dissociation Enhanced Lanthanide Fluorescence Immunoassay (DELFIA®, Gabriel, D.; Vernier, M.; Pfeifer, M. J.; Dasen, B.; Tenaillon, L.; Bouhelal, R. Assay and Drug Development Technologies 2003, 1, 291-303), endowed with greater sensitivity and greater accuracy than [α-^32P] radioisotope methods (Hoffmann, C.; Leitz, M. R.; Obendorf-Maass, S.; Lohse, M. J.; Klotz, K.-N. Naunyn-Schmiedeberg's Arch. Pharmacol. 2004, 369, 151-159) or [^3H] (Nannies, K. M.; Briend-Sutren, M. M.; Emorine, L. J.; Delavier-Klutchko, C.; Marullo, S.; Strosberg, A. D. Eur. J. Biochem. 1991, 196, 357-361) of determining the levels of cAMP in cell lines.
as §1
The DELFIA test (Dissociation Enhanced Lanthanide […] Immuno Assay) used for measuring the levels of cAMP was performed according to the protocol supplied by PerkinElmer Life Science. The optimization of the experimental conditions (quantity of cells, times of incubation) is reported below.
A plate of confluence cells was trypsinized and the cells were resuspended in the aforementioned culture medium, sown at a concentration of 50000 cells/200 μl per well in a 96-well plate and cultivated overnight in a CO2 incubator. The culture medium was then aspirated from every well and substituted with 100 μl of culture substrate without serum, preheated at 37° C. The plate was then put back into a CO2 incubator for 30 mins at 37° C. 50 μl of IBMX (3-isobutyl-1-methylxanthine) 1 mM, an inhibitor of the phosphodiesterase was then added to all the wells. In some wells 50 μl of forskolin (compound used for the validation of the DELFIA) was added at different concentrations (100 nM, 500 nM, 1 μM, 10 μM, 50 μM) and in the other wells 50 μl of the compounds to be tested at the same concentrations as the forskolin; the plate was then again incubated for 30 min at 37° C. The cells, at this point, were lysed and incubated at room temperature for 5 min. The plate was used immediately for measuring the levels of cAMP or stored at 4° C. until the measurement was carried out. The fluorescence was determined using a multilabel time-resolved fluorimetry technique performed on a PerkinElmer 1420 Victor®. The excitation and emission wavelengths were 340 nm and 615 nm respectively.

Test [4] deals with T3, cloned human β2-adrenergic receptor (Homo sapiens, UniProt P07550).
T3 construct: expressed in transfected cells; host or cells: CHO (membranes)
T3 sequence (P07550 whole entry): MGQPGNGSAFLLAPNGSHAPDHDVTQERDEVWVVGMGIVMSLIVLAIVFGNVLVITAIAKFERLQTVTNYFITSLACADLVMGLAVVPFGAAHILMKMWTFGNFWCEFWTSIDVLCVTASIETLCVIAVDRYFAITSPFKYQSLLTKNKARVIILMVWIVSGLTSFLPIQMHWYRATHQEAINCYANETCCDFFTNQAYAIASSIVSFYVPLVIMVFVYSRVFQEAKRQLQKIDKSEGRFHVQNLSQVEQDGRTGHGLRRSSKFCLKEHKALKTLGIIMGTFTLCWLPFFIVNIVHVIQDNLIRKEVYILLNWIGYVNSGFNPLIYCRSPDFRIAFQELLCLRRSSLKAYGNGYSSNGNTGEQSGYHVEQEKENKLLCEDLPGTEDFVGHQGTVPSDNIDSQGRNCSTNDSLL
The test is described as follows: [3H]-dihydroalprenolol binding on CHO cell membranes, β2-adrenergic receptor. Conditions: compound at 10 μM.

Test [5] addresses T3, cloned human β2-adrenergic receptor. Described as above. The following applies: human β2; Cheng-Prusoff; 0.4 nM [3H]-dihydroalprenolol; read-out: Binding Ki, β2. As for the experimental part: as §1, §2, §3, §4

T1 sequence (P08588 whole entry): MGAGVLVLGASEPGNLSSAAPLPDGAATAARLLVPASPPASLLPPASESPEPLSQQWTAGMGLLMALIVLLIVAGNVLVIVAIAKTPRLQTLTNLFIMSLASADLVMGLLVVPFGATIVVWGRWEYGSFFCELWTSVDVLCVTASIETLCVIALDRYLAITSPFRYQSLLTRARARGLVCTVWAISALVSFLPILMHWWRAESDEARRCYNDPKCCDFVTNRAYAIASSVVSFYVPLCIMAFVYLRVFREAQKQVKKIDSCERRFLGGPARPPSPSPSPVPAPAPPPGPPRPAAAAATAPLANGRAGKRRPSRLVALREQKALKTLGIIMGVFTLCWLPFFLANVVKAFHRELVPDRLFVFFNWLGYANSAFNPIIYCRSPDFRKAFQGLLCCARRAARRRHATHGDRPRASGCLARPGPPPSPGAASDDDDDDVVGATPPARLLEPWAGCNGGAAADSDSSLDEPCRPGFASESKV

On to `C[C@@H](Oc1ccc(CCN[C@H](C)[C@@H](O)c2ccccc2)cc1)C(=O)O` [Compound 1j], for which the Ki in test [1] is more than 7000 nM; in test [5] it was more than 5000 nM. Further, the “% activation at 10 μM, β1” value in test [2] is 20%. In test [3] (concentration of ligand producing 50% of maximum cAMP accumulation, CHO-K1 human β3, SEM, n ≧ 3), this molecule came in with a half-maximal effective concentration (EC50) of 211 ± 10 nM. The “Intrinsic Activity (IA %)” value in test [3] (maximum cAMP response, isoproterenol 10^−4 M = 100%, absence of agonists = 0%) is listed as “(39) %”. Moreover, the “% activation at 10 μM, β2” value in test [4] was found to be 21%.
